From PMC7866175, “Genomics-Driven Activation of Silent Biosynthetic Gene Clusters in Burkholderia gladioli by Screening Recombineering System” (Molecules, 2021)
Like-named read-outs stand apart in the source and are kept apart here. *1 amine or outer side, *2 acyl side, *3 side chain or, on linkers, in order; H or OH if unused. Where a SMILES comes first, the peptide text is derived from it. [ ]: non-standard residue; d: D form. The star is where a group is joined. ξ: configuration not given here. Decanoyl(3ξ-OH) = CCCCCCCC(O)CC(=O)*; X1 = CC=C(N[*:1])C(=O)[*:2]

Assays:
Assay type in all cases: cell-based
HepG-2 = test: Cytotoxic activity assay; details: HepG2; human hepatoma cell HepG-2
Cytotoxic activity assay = details: human, normal cell line 293T
K562 = test: Cytotoxic activity assay; details: human hematological disease cells K562
HCT116 = test: Cytotoxic activity assay; details: Homo sapiens, HCT-116, read-out: cytotoxic activity IC50, HCT116
[1] = tested on: Pseudomonas aeruginosa ATCC 27853; test: Antibacterial activity assay; details: ATCC27853; Gram-negative bacterium Pseudomonas aeruginosa ATCC 27853
MCF-7 = test: Cytotoxic activity assay; details: human breast adenocarcinoma cells MCF7
[2] = tested on: Escherichia coli ATCC 35218; test: Antibacterial activity assay; details: ATCC35218
Hela = test: Cytotoxic activity assay; details: human cervix epithelioid carcinoma Hela
[3] = tested on: Staphylococcus aureus ATCC 29213; test: Antibacterial activity assay; details: ATCC29213; Gram-positive bacterium Staphylococcus aureus ATCC 29213
A549 = test: Cytotoxic activity assay; details: human lung adenocarcinoma cell A549
[4] = tested on: Bacillus subtilis ATCC 6633; test: Antibacterial activity assay; details: ATCC6633; Gram-positive bacterium Bacillus subtilis ATCC 6633
[5] = Gram-negative bacterium Escherichia coli ATCC 35218, read-out: MIC

SMILES | IC50 (HepG-2) [µM] | IC50 (Cytotoxic activity assay) [µM] | IC50 (K562) [µM] | IC50 (HCT116) [µM] | MIC [1] [µM] | IC50 (MCF-7) [µM] | MIC ([2]; Escherichia coli) [µM] | IC50 (Hela) [µM] | MIC [3] [µM] | IC50 (A549) [µM] | MIC [4] [µM] | MIC [2, 5] [µM] | IC50 (Cytotoxic activity assay; 293T cells (normal cell line)) [µM]
CC=C(NC(=O)CC(O)CCCCCCC)C(=O)N1CCCC1C(=O)NC(CCC(N)=O)C(=O)NC(C)C(=O)NC(C(=O)NC(Cc1ccccc1)C(=O)N1CCCC1C(=O)O)C(C)C (stereo not shown) [Compound 1, Burriogladiodin A] ({Decanoyl(3ξ-OH)}-[X1]PQAVFP-OH; configuration not given here) | > 20 | 29.4 ± 0.85 | > 20 | > 20 | > 100 | > 20 | > 100 | > 20 | > 100 | > 20 | > 100 |  | 
CC=C(NC(=O)CC(O)CCCCCCC)C(=O)N1CCCC1C(=O)NC(CCC(N)=O)C(=O)NC(C)C(=O)NC(C(=O)NC(Cc1ccccc1)C(=O)N1CCCC1C(=O)NC(C(=O)O)C(C)O)C(C)C (stereo not shown) [Compound 2, Burriogladiodin B] ({Decanoyl(3ξ-OH)}-[X1]PQAVFPT-OH; configuration not given here) | > 20 | > 40 | > 20 | > 20 | > 100 | > 20 | > 100 | > 20 | > 100 | > 20 | > 100 |  | 
CC=C(NC(=O)CC(O)CCCCCCC)C(=O)N1CCCC1C(=O)NC(CCC(N)=O)C(=O)NC(C)C(=O)NC(C(=O)NC(Cc1ccccc1)C(=O)O)C(C)C (stereo not shown) [Compound 5, Burriogladiodin E] ({Decanoyl(3ξ-OH)}-[X1]PQAVF-OH; configuration not given here) | > 20 | 24.9 ± 0.96 | > 20 | > 20 | > 100 | > 20 | > 100 | > 20 | > 100 | > 20 | > 100 |  | 
CC=C(NC(=O)CC(O)CCCCCCC)C(=O)N1CCCC1C(=O)NC(CCC(N)=O)C(=O)NC(C)C(=O)NC(C)C(=O)NC(Cc1ccccc1)C(=O)O (stereo not shown) [Compound 8, Burriogladiodin H] ({Decanoyl(3ξ-OH)}-[X1]PQAAF-OH; configuration not given here) | > 20 | > 40 | > 20 | > 20 | > 100 | > 20 | > 100 | > 20 | > 100 | > 20 | > 100 |  | 
CC=C(NC(=O)CCCCCCC)C(=O)NC(=CC)C(=O)NC(Cc1ccc(O)cc1)C(=O)NC(CC(C)C)C(=O)Nc1ccc(C(=O)NC(C(=O)O)C(C)O)cc1 (stereo not shown) [Compound 9, Haereogladiodin A] | > 20 | 36.1 ± 0.81 | > 20 | > 20 | > 100 | > 20 |  | > 20 | > 100 | > 20 | > 100 | > 100 | 
CC=C(NC(=O)CCCCCCC)C(=O)NC(=CC)C(=O)NC(Cc1ccc(O)cc1)C(=O)O (stereo not shown) [Compound 10, Haereogladiodin B] | > 20 | 33.9 ± 0.75 | > 20 | > 20 | > 100 | > 20 |  | > 20 | > 100 | > 20 | > 100 | > 100 | 
COc1cccc2c1C(=O)c1c(O)c3c(c(O)c1C2=O)C[C@@](O)(C(=O)CO)C[C@@H]3O[C@H]1C[C@H](N)[C@H](O)[C@H](C)O1 [adriamycin, reference compound] | 0.68 ± 0.001 |  | 0.57 ± 0.02 | 0.73 ± 0.05 |  | 0.86 ± 0.07 |  | 0.61 ± 0.07 |  | 0.61 ± 0.03 |  |  | 1.47 ± 0.15
